In brackets after ≈: the same amount, converted by molar mass.
Legend:
Type in all cases: cell-based
[1] = system: Enterococcus faecium ATCC 8Q43; experiment: in vitro antibacterial MIC, agar dilution; conditions: organism code II; 35-37° C., 20 to 24 hours; unit assumed
Protocol: (§1) Representative compounds of the present invention were assayed in vitro for antibacterial activity as follows: Twelve petri dishes containing successive aqueous dilutions of the test compound mixed with 10 mL of sterilized Brain Heart Infusion (BHI) agar (Difco 0418-01-5) were prepared. Each plate was inoculated with 1:100 (or 1:10 for slow-growing strains, such as Micrococcus and Streptococcus) dilutions of up to 32 different microorganisms, using a Steers replicator block. […] In addition, a control plate, using BHI agar containing no test compound, was prepared and incubated at the beginning and end of each test.
(§2) An additional plate containing a compound having known susceptibility patterns for the organisms being tested and belonging to the same antibiotic class as the test compound was also prepared and incubated as a further control, as well as to provide test-to-test comparability.
(§3) After incubation, each plate was visually inspected. The minimum inhibitory concentration (MIC) was defined as the lowest concentration of drug yielding no growth, a slight haze, or sparsely isolated colonies on the inoculum spot as compared to the growth control.

[2] = system: Haemophilis Influenzae DILL AMP R; experiment: in vitro antibacterial MIC, agar dilution; conditions: organism code WW; 35-37° C., 20 to 24 hours; unit assumed
Protocol: as §1, §2, §3

[3] = system: Micrococcus luteus ATCC 4698; experiment: in vitro antibacterial MIC, agar dilution; conditions: organism code PP; 35-37° C., 20 to 24 hours; unit assumed
Protocol: as §1, §2, §3

[4] = system: Streptococcus Pheumoniae ATCC6303; experiment: in vitro antibacterial MIC, agar dilution; conditions: organism code XX; 35-37° C., 20 to 24 hours; unit assumed
Protocol: as §1, §2, §3

[5] = system: Streptococcus pyogenes EES61; experiment: in vitro antibacterial MIC, agar dilution; conditions: organism code LL; 35-37° C., 20 to 24 hours; unit assumed
Protocol: as §1, §2, §3

[6] = system: Staphylococcus aureus CMX 642A; experiment: in vitro antibacterial MIC, agar dilution; conditions: organism code DD; 35-37° C., 20 to 24 hours; unit assumed
Protocol: as §1, §2, §3

[7] = system: Staphylococcus aureus A5177; experiment: in vitro antibacterial MIC, agar dilution; conditions: organism code BB; 35-37° C., 20 to 24 hours; unit assumed
Protocol: as §1, §2, §3

[8] = system: Staphylococcus aureus NCTC10649M; experiment: in vitro antibacterial MIC, agar dilution; conditions: organism code EE; 35-37° C., 20 to 24 hours; unit assumed
Protocol: as §1, §2, §3

[9] = system: Streptococcus agalactiae CMX 508; experiment: in vitro antibacterial MIC, agar dilution; conditions: organism code KK; 35-37° C., 20 to 24 hours; unit assumed
Protocol: as §1, §2, §3

[10] = system: Staphylococcus aureus CMX 553; experiment: in vitro antibacterial MIC, agar dilution; conditions: organism code FF; 35-37° C., 20 to 24 hours; unit assumed
Protocol: as §1, §2, §3

[11] = system: Streptococcus bovis A-5169; experiment: in vitro antibacterial MIC, agar dilution; conditions: organism code JJ; 35-37° C., 20 to 24 hours; unit assumed
Protocol: as §1, §2, §3

[12] = system: Streptococcus Pheumoniae 5979; experiment: in vitro antibacterial MIC, agar dilution; conditions: organism code ZZ; 35-37° C., 20 to 24 hours; unit assumed
Protocol: as §1, §2, §3

[13] = system: Streptococcus Pheumoniae 5649; experiment: in vitro antibacterial MIC, agar dilution; conditions: organism code ZZA; 35-37° C., 20 to 24 hours; unit assumed
Protocol: as §1, §2, §3

[14] = system: Nocardia Asteroides ATCC9970; experiment: in vitro antibacterial MIC, agar dilution; conditions: organism code VV; 35-37° C., 20 to 24 hours; unit assumed
Protocol: as §1, §2, §3

[15] = system: Micrococcus luteus ATCC 9341; experiment: in vitro antibacterial MIC, agar dilution; conditions: organism code OO; 35-37° C., 20 to 24 hours; unit assumed
Protocol: as §1, §2, §3

[16] = system: Staphylococcus aureus ATCC 6538P; experiment: in vitro antibacterial MIC, agar dilution (BHI agar, Steers replicator); conditions: organism code AA; 35-37° C., 20 to 24 hours; unit assumed
Protocol: as §1, §2, §3

[17] = system: Candida albicans CCH 442; experiment: in vitro MIC, agar dilution; conditions: organism code TT; 35-37° C., 20 to 24 hours; unit assumed
Protocol: as §1, §2, §3

[18] = system: Streptococcus Pheumoniae GYR 1171; experiment: in vitro antibacterial MIC, agar dilution; conditions: organism code YY; 35-37° C., 20 to 24 hours; unit assumed
Protocol: as §1, §2, §3

[19] = system: Staphylococcus aureus 1775; experiment: in vitro antibacterial MIC, agar dilution; conditions: organism code GG; 35-37° C., 20 to 24 hours; unit assumed
Protocol: as §1, §2, §3

[20] = system: Escherichia coli SS; experiment: in vitro antibacterial MIC, agar dilution; conditions: organism code RR; 35-37° C., 20 to 24 hours; unit assumed
Protocol: as §1, §2, §3

[21] = system: Escherichia coli JUHL; experiment: in vitro antibacterial MIC, agar dilution; conditions: organism code QQ; 35-37° C., 20 to 24 hours; unit assumed
Protocol: as §1, §2, §3

[22] = system: Staphylococcus aureus A-5278; experiment: in vitro antibacterial MIC, agar dilution; conditions: organism code CC; 35-37° C., 20 to 24 hours; unit assumed
Protocol: as §1, §2, §3

[23] = system: Escherichia coli DC-2; experiment: in vitro antibacterial MIC, agar dilution; conditions: organism code SS; 35-37° C., 20 to 24 hours; unit assumed
Protocol: as §1, §2, §3

[24] = system: Streptococcus pyogenes PIU 2548; experiment: in vitro antibacterial MIC, agar dilution; conditions: organism code NN; 35-37° C., 20 to 24 hours; unit assumed
Protocol: as §1, §2, §3

[25] = system: Streptococcus pyogenes 930; experiment: in vitro antibacterial MIC, agar dilution; conditions: organism code MM; 35-37° C., 20 to 24 hours; unit assumed
Protocol: as §1, §2, §3

[26] = system: Staphylococcus epidermidis 3519; experiment: in vitro antibacterial MIC, agar dilution; conditions: organism code HH; 35-37° C., 20 to 24 hours; unit assumed
Protocol: as §1, §2, §3

[27] = system: Mycobacterium smegmatis ATCC 114; experiment: in vitro antibacterial MIC, agar dilution; conditions: organism code UU; 35-37° C., 20 to 24 hours; unit assumed
Protocol: as §1, §2, §3

Row | Compound | MIC [1] [µg/mL] | MIC [2] [µg/mL] | MIC [3] [µg/mL] | MIC [4] [µg/mL] | MIC [5] [µg/mL] | MIC [6] [µg/mL] | MIC [7] [µg/mL] | MIC [8] [µg/mL] | MIC [9] [µg/mL] | MIC [10] [µg/mL] | MIC [11] [µg/mL] | MIC [12] [µg/mL] | MIC [13] [µg/mL] | MIC [14] [µg/mL] | MIC [15] [µg/mL] | MIC [16] [µg/mL] | MIC [17] [µg/mL] | MIC [18] [µg/mL] | MIC [19] [µg/mL] | MIC [20] [µg/mL] | further results
1 | CC[C@H]1OC(=O)[C@H](C)C(=O)[C@H](C)[C@@H](O[C@@H]2O[C@H](C)C[C@H](N(C)C)[C@H]2O)[C@@]2(C)C[C@@H](C)C(=O)[C@H](C)[C@H]3N(CCC=CCO2)C(=O)O[C@]13C [Example 18] | 0.39 (≈ 0.587 µM) | 128 (≈ 193 µM) | 0.78 (≈ 1.17 µM) | 1 (≈ 1.5 µM) | 0.2 (≈ 0.301 µM) | 0.78 (≈ 1.17 µM) | 0.78 (≈ 1.17 µM) | 0.78 (≈ 1.17 µM) | 0.2 (≈ 0.301 µM) | 0.78 (≈ 1.17 µM) | 0.2 (≈ 0.301 µM) | > 128 | 2 (≈ 3.01 µM) | 0.78 (≈ 1.17 µM) | 0.39 (≈ 0.587 µM) | 0.78 (≈ 1.17 µM) | – | – | – | – | –
2 | CC[C@H]1OC(=O)[C@H](C)[C@@H](O[C@H]2C[C@@](C)(OC)[C@@H](O)[C@H](C)O2)[C@H](C)[C@@H](O[C@@H]2O[C@H](C)C[C@H](N(C)C)[C@H]2O)[C@@]2(C)C[C@@H](C)C(=O)[C@H](C)[C@H]3N(CC(O)CCCCO2)C(=O)O[C@]13C (stereo partly drawn) [Example 22] | 0.2 (≈ 0.233 µM) | 4 (≈ 4.67 µM) | 0.39 (≈ 0.455 µM) | 0.06 (≈ 0.07 µM) | 0.1 (≈ 0.117 µM) | 1.56 (≈ 1.82 µM) | 12.5 (≈ 14.6 µM) | 1.56 (≈ 1.82 µM) | 0.1 (≈ 0.117 µM) | 1.56 (≈ 1.82 µM) | 0.05 (≈ 0.0583 µM) | > 128 | 16 (≈ 18.7 µM) | 0.1 (≈ 0.117 µM) | 0.1 (≈ 0.117 µM) | 1.56 (≈ 1.82 µM) | > 100 | 0.06 (≈ 0.07 µM) | > 100 | 0.78 (≈ 0.91 µM) | MIC [21]: 100 µg/mL (≈ 117 µM); MIC [22]: > 100 µg/mL; MIC [23]: > 100 µg/mL; MIC [24]: 12.5 µg/mL (≈ 14.6 µM); MIC [25]: > 100 µg/mL; MIC [26]: 1.56 µg/mL (≈ 1.82 µM); MIC [27]: 0.78 µg/mL (≈ 0.91 µM)
3 | CC[C@H]1OC(=O)[C@H](C)[C@@H](O[C@H]2C[C@@](C)(OC)[C@@H](O)[C@H](C)O2)[C@H](C)[C@@H](O[C@@H]2O[C@H](C)C[C@H](N(C)C)[C@H]2O)[C@](C)(O)C[C@@H](C)C(=O)[C@H](C)[C@@H](O)[C@]1(C)O [Ery. A, Erythromycin A, reference compound] | 0.05 (≈ 0.0681 µM) | 4 (≈ 5.45 µM) | 0.2 (≈ 0.273 µM) | 0.06 (≈ 0.0818 µM) | 0.05 (≈ 0.0681 µM) | 0.39 (≈ 0.531 µM) | 3.1 (≈ 4.22 µM) | 0.39 (≈ 0.531 µM) | 0.05 (≈ 0.0681 µM) | 0.39 (≈ 0.531 µM) | 0.02 (≈ 0.0273 µM) | – | 16 (≈ 21.8 µM) | 0.1 (≈ 0.136 µM) | 0.05 (≈ 0.0681 µM) | 0.2 (≈ 0.273 µM) | > 100 | 0.06 (≈ 0.0818 µM) | > 100 | 0.78 (≈ 1.06 µM) | MIC [21]: > 100 µg/mL; MIC [22]: > 100 µg/mL; MIC [23]: > 100 µg/mL; MIC [24]: 6.2 µg/mL (≈ 8.45 µM); MIC [25]: > 100 µg/mL; MIC [26]: 0.39 µg/mL (≈ 0.531 µM); MIC [27]: 3.1 µg/mL (≈ 4.22 µM)
4 | CC[C@H]1OC(=O)[C@H](C)[C@@H](O[C@H]2C[C@@](C)(OC)[C@@H](O)[C@H](C)O2)[C@H](C)[C@@H](O[C@@H]2O[C@H](C)C[C@H](N(C)C)[C@H]2O)[C@@]2(C)C[C@@H](C)C(=O)[C@H](C)[C@H]3N(CCNC(=O)c4ccccc4CC=CCO2)C(=O)O[C@]13C [Example 24] | 0.2 (≈ 0.209 µM) | 16 (≈ 16.7 µM) | 1.56 (≈ 1.63 µM) | 0.03 (≈ 0.0313 µM) | 0.1 (≈ 0.104 µM) | 1.56 (≈ 1.63 µM) | 25 (≈ 26.1 µM) | 1.56 (≈ 1.63 µM) | 0.1 (≈ 0.104 µM) | 0.78 (≈ 0.814 µM) | 0.1 (≈ 0.104 µM) | 128 (≈ 134 µM) | 16 (≈ 16.7 µM) | 0.1 (≈ 0.104 µM) | 0.1 (≈ 0.104 µM) | 0.78 (≈ 0.814 µM) | > 100 | 0.03 (≈ 0.0313 µM) | > 100 | 6.2 (≈ 6.47 µM) | MIC [21]: 100 µg/mL (≈ 104 µM); MIC [22]: > 100 µg/mL; MIC [23]: > 100 µg/mL; MIC [24]: 12.5 µg/mL (≈ 13 µM); MIC [25]: > 100 µg/mL; MIC [26]: 1.56 µg/mL (≈ 1.63 µM); MIC [27]: 0.39 µg/mL (≈ 0.407 µM)
5 | CC[C@H]1OC(=O)[C@H](C)[C@@H](O[C@H]2C[C@@](C)(OC)[C@@H](O)[C@H](C)O2)[C@H](C)[C@@H](O[C@@H]2O[C@H](C)C[C@H](N(C)C)[C@H]2O)[C@@]2(C)C[C@@H](C)C(=O)[C@H](C)[C@H]3N(CC=CCO2)C(=O)O[C@]13C [Example 14] | 0.1 (≈ 0.123 µM) | 8 (≈ 9.86 µM) | 0.39 (≈ 0.481 µM) | 0.03 (≈ 0.037 µM) | 0.05 (≈ 0.0617 µM) | 0.2 (≈ 0.247 µM) | 3.1 (≈ 3.82 µM) | 0.39 (≈ 0.481 µM) | 0.05 (≈ 0.0617 µM) | 0.2 (≈ 0.247 µM) | 0.05 (≈ 0.0617 µM) | > 128 | 16 (≈ 19.7 µM) | 0.05 (≈ 0.0617 µM) | 0.05 (≈ 0.0617 µM) | 0.2 (≈ 0.247 µM) | > 100 | 0.03 (≈ 0.037 µM) | > 100 | 0.78 (≈ 0.962 µM) | MIC [21]: 50 µg/mL (≈ 61.7 µM); MIC [22]: > 100 µg/mL; MIC [23]: > 100 µg/mL; MIC [24]: 6.2 µg/mL (≈ 7.64 µM); MIC [25]: > 100 µg/mL; MIC [26]: 0.2 µg/mL (≈ 0.247 µM); MIC [27]: 0.78 µg/mL (≈ 0.962 µM)

Source: patent US6046171A, “6,11-bridged erythromycin derivatives” (priority 1998, dated 2000)
